From article PMC3602354 (Chemical research in toxicology, 2013)
“And” between values parts separate entries of the source, which are not always exact repeats. Equal values may be shown once.

Experiments:
in vitro [1] = type: in vitro ADME, mouse; conditions: Cyp2a5-null, mouse, pH 7.4
[2] = test system: Cyp2a5-null mouse nasal mucosa microsomes; assay: in vitro; type: in vitro ADME
in vitro [3] = type: in vitro ADME, mouse; conditions: mouse, pH 7.4
[4] = test system: WT mouse nasal mucosa microsomes; assay: in vitro; type: in vitro ADME; conditions: GS-DCBN formation; WT mouse nasal mucosa microsomes; mean ± SE, n=3
in vitro [5] = type: in vitro ADME, human; conditions: both, human
[6] = test system: human fetal nasal mucosa microsomes; assay: in vitro; type: in vitro ADME; conditions: GS-DCBN formation; human fetal nasal mucosa microsomes; mean ± SE, n=3
nasal mucosa [7] = assay: Histopathological analysis of nasal mucosa in DCBN-treated Cyp2a5-null mice; type: in vivo, mouse; conditions: DCBN 10 mg/kg single i.p., 24 h after treatment
nasal mucosa [8] = assay: Histopathological analysis of nasal mucosa in DCBN-treated WT mice; type: in vivo, mouse
[9] = Cyp2a5-null vs WT nasal mucosa microsomes

## N#Cc1c(Cl)cccc1Cl [DCBN, 2,6-dichlorobenzonitrile]
In vitro [1]
  Km: 4.2 ± 0.6 µM
[2]; [9]
  decrease in apparent Vmax compared to WT mice: ~ 4 fold
  increase in apparent Km compared to WT mice: ~ 10 fold
  reduction of efficiency for GS-DCBN formation compared to WT mice: ~ 40 fold
[2]; GS-DCBN formation, Cyp2a5-null mouse nasal mucosa microsomes, mean ± SE, n=3
  Vmax: 253 ± 12 pmol/min/mg protein
In vitro [3]
  Km: 0.43 ± 0.04 µM
[4]
  Vmax: 1050 ± 30 pmol/min/mg protein
In vitro [5]
  Km at 60 min: 0.45 ± 0.1 µM
[6]
  Vmax: 0.14 pmol/min/mg protein and 0.14 ± 0.01 pmol/min/mg protein
Nasal mucosa [7]
  histopathology of nasal mucosa: essentially normal olfactory epithelium and BG
Nasal mucosa [8]; DCBN 10 mg/kg single i.p., 24 h after treatment
  histopathology of nasal mucosa: moderate injury to the nasal mucosa
Nasal mucosa [8]; DCBN 4 × 1 mg/kg s.c., 1.5-h intervals, 24 h after last treatment
  histopathology of nasal mucosa: essentially normal morphology
